Results published in patent publication US12667614B2, “Bacterial microcompartment virus-like particles” (National University of Singapore, priority 2020, dated 2026).

Columns and labels:
Type in all cases: biochemical
[1] = biological target: T1, Free LacZ (E. coli beta-galactosidase), N-terminal His6, fused to S2CP(30); LacZ-S2CP(30), SEQ ID NO: 103 (Escherichia coli, UniProt P00722); experiment: Steady-state kinetics of free LacZ (ONPG hydrolysis); conditions: free LacZ 10 nM; ONPG 0.050 to 1.5 mM; TBS-50/350 pH 8.0, 1 mM MgCl2; mean with standard error, triplicates
T1 construct: homotetramer
T1 sequence (P00722 other isoform, or with tags, fused parts or gaps): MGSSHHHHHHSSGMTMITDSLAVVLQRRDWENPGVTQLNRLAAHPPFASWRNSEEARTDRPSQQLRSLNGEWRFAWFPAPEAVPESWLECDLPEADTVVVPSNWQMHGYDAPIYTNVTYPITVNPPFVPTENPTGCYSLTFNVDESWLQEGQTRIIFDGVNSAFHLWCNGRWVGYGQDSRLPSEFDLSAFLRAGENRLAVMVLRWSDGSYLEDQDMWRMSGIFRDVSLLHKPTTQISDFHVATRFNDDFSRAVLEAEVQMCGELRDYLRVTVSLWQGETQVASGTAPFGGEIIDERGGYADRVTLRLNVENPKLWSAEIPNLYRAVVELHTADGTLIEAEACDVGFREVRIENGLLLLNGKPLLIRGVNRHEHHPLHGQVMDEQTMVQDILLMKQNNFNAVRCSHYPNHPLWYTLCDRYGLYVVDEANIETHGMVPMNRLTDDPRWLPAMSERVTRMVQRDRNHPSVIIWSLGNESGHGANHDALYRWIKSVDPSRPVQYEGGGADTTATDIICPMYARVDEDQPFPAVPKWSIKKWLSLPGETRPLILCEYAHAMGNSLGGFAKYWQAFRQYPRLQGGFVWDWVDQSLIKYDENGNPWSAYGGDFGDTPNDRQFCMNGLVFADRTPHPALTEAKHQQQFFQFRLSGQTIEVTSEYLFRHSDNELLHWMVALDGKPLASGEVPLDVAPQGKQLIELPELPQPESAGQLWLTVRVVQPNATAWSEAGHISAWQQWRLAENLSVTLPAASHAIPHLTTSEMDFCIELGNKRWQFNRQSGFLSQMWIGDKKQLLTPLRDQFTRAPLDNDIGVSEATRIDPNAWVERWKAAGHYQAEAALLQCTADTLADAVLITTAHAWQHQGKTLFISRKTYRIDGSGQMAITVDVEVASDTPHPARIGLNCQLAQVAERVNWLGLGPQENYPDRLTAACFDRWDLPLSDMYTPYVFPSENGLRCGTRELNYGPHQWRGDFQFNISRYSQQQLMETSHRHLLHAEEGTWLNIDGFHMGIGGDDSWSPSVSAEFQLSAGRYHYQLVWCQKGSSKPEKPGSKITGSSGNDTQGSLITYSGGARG
Protocol: (§1) For APEX2, all reagents were made to the appropriate working concentrations using TBS-50/350 pH 8.0. Working solutions of guaiacol and H2O2, both at 10 mM, were prepared on the day of assay. The guaiacol solution was shaken vigorously at 30° C. to ensure complete dissolution before equilibration back to room temperature. The assay concentration for APEX2 was 10 nM, H2O2 1 mM and that for guaiacol ranged from 0.20 to 2.0 mM. Total reaction volume was 200 μL. Reactions were monitored by the absorbance of tetraguaiacol formed at 470 nm using a BioTek Synergy™ HT microplate reader. […] This time point was taken for initial rate, V0, measurement. Kinetic constants were obtained using non-linear least square Michaelis-Menten fitting in GraphPad Prism software.
For steady-state kinetics of LacZ, all reagents were made to the appropriate working concentrations using TBS-50/350 pH 8.0 supplemented with 1 mM MgCl2. Working solutions of ONPG at 10 mM were prepared from a 50 mM stock solution in DMSO on the day of assay. The assay concentration for LacZ was 10 nM and that for ONPG (ortho-nitrophenyl-β-galactoside) ranged from 0.050 to 1.5 mM. Total reaction volume was 100 μL. Hydrolysis of ONPG was tracked by absorbance measurements at 405 nm. […]

[2] = biological target: T2, LacZ + shell: LacZ (E. coli beta-galactosidase), N-terminal His6, fused to S2CP(30), SEQ ID NO: 103, encapsulated in Cso-BMC (Cso-PSIIH) shell (Escherichia coli, UniProt P00722); experiment: Steady-state kinetics of Cso-BMC encapsulated LacZ (ONPG hydrolysis)
T2 construct: homotetramer
T2 sequence (P00722 other isoform, or with tags, fused parts or gaps): as above
Protocol: as §1
For steady-state kinetics of LacZ, all reagents were made to the appropriate working concentrations using TBS-50/350 pH 8.0 supplemented with 1 mM MgCl2. Working solutions of ONPG at 10 mM were prepared from a 50 mM stock solution in DMSO on the day of assay. The assay concentration for LacZ was 10 nM and that for ONPG (ortho-nitrophenyl-β-galactoside) ranged from 0.050 to 1.5 mM. Total reaction volume was 100 μL. Hydrolysis of ONPG was tracked by absorbance measurements at 405 nm.
To probe the capacity of the Cso-BMC for encasing enzymes of considerably different molecular sizes, an evolved pea cytosolic ascorbate peroxidase (APEX2), a 27.0 kDa monomer [Lam et al., Nature Methods 12(1): 51-54 (2015)], and E. coli beta-galactosidase (LacZ), a 466.0 kDa homotetramer, were chosen for encapsulation [Golan, et al., Biochimica et Biophysica Acta (BBA)—Bioenergetics, 1293(2): 238-242; Lam et al., Nature Methods 12(1): 51-54 (2015)]. […] Enzymes were also N-terminally tagged with the hexahistidine (Hiss) tag to facilitate downstream removal of unencapsulated enzymes that might co-purify with shells (Nichols, Kennedy, & Tullman-Ercek, 2019). Cso-PSIIH shells co-expressed with enzymes were constructed and purified. SDS-PAGE analysis and Western blotting confirmed the presence of the target enzymes in shell samples (FIG. 18A-B) and the average copy numbers of enzymes per shell were estimated by Coomassie blue densitometry (Table 8) [Hagen, A., et al., Nature Communications 9: 2881 (2018); Nichols et al., Methods in Enzymology, 617, 155-186 (2019)].
Encapsulation of an enzyme into a protein shell is known to alter the enzyme's catalytic properties in some cases. To probe how encapsulation by the Cso-BMC might affect the catalytic efficiencies of APEX2 and LacZ, we performed steady-state kinetics of both free and encapsulated enzymes and fitted the data to the Michaelis-Menten model to obtain the turnover number (kcat), Michaelis-Menten constant (KM), and catalytic efficiency (kcat/KM) (Table 8, FIG. 19). […]

[3] = biological target: T3, APEX2 + shell: APEX2 (evolved pea cytosolic ascorbate peroxidase), N-terminal His6, fused to S2CP(30), SEQ ID NO: 110, encapsulated in Cso-BMC (Cso-PSIIH) shell (Glycine max, UniProt Q43758, A134P/E112K/K14D/W41F); experiment: Steady-state kinetics of Cso-BMC encapsulated APEX2 (guaiacol oxidation); conditions: decreased to
T3 sequence (Q43758 with tags, fused parts or gaps A134P/E112K/K14D/W41F): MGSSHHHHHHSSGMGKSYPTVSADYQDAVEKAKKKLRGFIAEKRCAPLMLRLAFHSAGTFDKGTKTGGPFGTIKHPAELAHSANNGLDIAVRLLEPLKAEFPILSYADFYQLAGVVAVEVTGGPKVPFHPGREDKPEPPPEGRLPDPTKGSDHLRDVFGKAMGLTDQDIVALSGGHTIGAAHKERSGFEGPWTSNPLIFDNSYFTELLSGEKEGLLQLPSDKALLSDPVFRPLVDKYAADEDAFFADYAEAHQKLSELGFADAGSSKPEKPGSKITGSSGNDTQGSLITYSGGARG
Protocol: as §1
To probe the capacity of the Cso-BMC for encasing enzymes of considerably different molecular sizes, an evolved pea cytosolic ascorbate peroxidase (APEX2), a 27.0 kDa monomer [Lam et al., Nature Methods 12(1): 51-54 (2015)], and E. coli beta-galactosidase (LacZ), a 466.0 kDa homotetramer, were chosen for encapsulation [Golan, et al., Biochimica et Biophysica Acta (BBA)—Bioenergetics, 1293(2): 238-242; Lam et al., Nature Methods 12(1): 51-54 (2015)]. […]

[4] = encapsulated LacZ 10 nM, ONPG 0.050 to 1.5 mM, TBS-50/350 pH 8.0, 1 mM MgCl2, mean with standard error, triplicates

Compound | kcat [1] | kcat/KM [1] | kcat/KM of encapsulated LacZ compared with the free enzyme ([2]; comparison in words with free LacZ) | Km [2, 4] | kcat [2, 4] | kcat/KM [2, 4] | kcat/KM of encapsulated APEX2 relative to the free enzyme [3]
O=[N+]([O-])c1ccccc1O[C@@H]1O[C@H](CO)[C@H](O)[C@H](O)[C@H]1O [ONPG, ortho-nitrophenyl-β-galactoside] | 258 ± 17 s⁻¹ | 15.2 ± 2.05 × 10^5 (s^−1 · M^−1) | not significantly different from the free enzyme | 140 ± 20 µM | 200 ± 14 s⁻¹ | 14.3 ± 2.27 × 10^5 (s^−1 · M^−1) | 
COc1ccccc1O [guaiacol] |  |  |  |  |  |  | approximately 30%
